Laboratory results: ChEMBL document CHEMBL5390258, “Recent Progress and Prospects of Small Molecules for NLRP3 Inflammasome Inhibition” (J Med Chem, 2023)
Blank lines part the entries; values can stand above or below the molecule they belong to.

Columns and labels:
[1] = molecular target: T1, NACHT, LRR and PYD domains-containing protein 3 (Homo sapiens, UniProt Q96P20); test: Inhibition of NLRP3 in LPS induced human Whole blood cell assessed as reduction in IL-1beta production preincubated for 3 hrs followed by nigericin measured after 1 hrs by resazurin staining based assay; assay type: tissue-based
T1 sequence (Q96P20 whole entry, the tested form may be a part): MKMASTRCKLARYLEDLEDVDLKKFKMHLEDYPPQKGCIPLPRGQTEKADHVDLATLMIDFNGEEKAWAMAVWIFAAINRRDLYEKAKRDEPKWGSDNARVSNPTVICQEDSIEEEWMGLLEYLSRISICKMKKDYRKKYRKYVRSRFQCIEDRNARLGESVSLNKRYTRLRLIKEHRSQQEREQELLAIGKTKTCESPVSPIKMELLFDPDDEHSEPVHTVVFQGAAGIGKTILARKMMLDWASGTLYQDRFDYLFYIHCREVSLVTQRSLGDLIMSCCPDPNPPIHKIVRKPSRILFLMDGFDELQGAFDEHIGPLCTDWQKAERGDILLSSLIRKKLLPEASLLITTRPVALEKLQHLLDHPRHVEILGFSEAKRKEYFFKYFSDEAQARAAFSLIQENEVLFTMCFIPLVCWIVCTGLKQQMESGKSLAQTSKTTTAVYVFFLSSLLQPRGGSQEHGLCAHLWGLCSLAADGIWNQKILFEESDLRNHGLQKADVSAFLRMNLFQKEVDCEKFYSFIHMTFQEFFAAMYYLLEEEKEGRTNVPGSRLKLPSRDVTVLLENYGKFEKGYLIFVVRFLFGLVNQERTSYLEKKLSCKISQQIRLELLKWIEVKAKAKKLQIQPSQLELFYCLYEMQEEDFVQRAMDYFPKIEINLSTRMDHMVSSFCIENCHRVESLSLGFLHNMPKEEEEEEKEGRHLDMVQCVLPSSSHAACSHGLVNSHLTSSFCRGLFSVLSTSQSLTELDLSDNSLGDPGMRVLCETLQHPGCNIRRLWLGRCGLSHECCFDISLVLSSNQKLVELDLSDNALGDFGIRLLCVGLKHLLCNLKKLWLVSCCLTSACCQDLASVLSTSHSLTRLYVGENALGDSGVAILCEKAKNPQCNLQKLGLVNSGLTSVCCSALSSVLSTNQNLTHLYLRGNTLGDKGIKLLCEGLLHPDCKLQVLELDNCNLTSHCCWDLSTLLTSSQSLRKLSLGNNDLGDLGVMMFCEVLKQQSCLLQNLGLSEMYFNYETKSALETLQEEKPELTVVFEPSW

[2] = molecular target: T1, NACHT, LRR and PYD domains-containing protein 3; test: Inhibition of NLRP3 in human PBMC cells assessed as reduction in TNF alpha level preincubated for 30 mins followed by LPS addition measured after 6 hrs; assay type: cell-based
[3] = molecular target: T1, NACHT, LRR and PYD domains-containing protein 3; test: Inhibition of NLRP3 in human PBMC cells assessed as reduction in IL-1beta production preincubated for 30 mins followed by LPS addition measured after 6 hrs; assay type: cell-based
[4] = molecular target: T2, NACHT, LRR and PYD domains-containing protein 3 (Mus musculus, UniProt Q8R4B8); test: Inhibition of NLRP3 in LPS induced mouse BMDM cells assessed as reduction in IL-1beta production measured after 30 mins by ELISA assay; assay type: cell-based
T2 sequence (Q8R4B8 whole entry, the tested form may be a part): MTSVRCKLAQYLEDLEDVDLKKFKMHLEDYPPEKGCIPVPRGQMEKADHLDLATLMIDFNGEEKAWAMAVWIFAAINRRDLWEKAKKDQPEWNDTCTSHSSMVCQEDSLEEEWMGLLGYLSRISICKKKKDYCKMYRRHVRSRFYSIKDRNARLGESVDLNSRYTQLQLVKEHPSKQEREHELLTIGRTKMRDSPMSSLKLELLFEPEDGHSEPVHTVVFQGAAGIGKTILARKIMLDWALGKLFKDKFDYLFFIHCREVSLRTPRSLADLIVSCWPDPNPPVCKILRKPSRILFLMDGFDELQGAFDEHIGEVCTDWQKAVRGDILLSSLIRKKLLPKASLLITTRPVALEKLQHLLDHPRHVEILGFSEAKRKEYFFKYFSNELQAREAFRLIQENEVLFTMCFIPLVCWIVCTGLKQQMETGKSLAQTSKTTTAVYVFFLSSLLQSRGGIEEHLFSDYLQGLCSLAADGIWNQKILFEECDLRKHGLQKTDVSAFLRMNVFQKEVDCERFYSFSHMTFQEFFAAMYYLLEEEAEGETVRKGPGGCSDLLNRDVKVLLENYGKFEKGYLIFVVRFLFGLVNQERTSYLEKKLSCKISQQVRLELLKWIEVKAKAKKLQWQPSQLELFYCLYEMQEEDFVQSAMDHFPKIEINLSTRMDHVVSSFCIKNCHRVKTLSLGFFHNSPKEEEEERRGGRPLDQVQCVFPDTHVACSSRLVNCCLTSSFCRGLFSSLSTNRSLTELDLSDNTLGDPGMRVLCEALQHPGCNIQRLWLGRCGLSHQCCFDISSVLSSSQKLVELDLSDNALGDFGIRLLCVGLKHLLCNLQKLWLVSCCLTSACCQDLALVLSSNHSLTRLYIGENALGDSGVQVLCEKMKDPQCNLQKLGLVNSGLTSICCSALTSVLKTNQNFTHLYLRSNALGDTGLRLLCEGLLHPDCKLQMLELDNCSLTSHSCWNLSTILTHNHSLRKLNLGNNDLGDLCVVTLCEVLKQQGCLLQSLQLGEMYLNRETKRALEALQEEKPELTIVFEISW

[5] = molecular target: T2, NACHT, LRR and PYD domains-containing protein 3; test: Inhibition of NLRP3 in mouse BMDM cells assessed as reduction in IL-1beta production; assay type: cell-based
[6] = molecular target: T1, NACHT, LRR and PYD domains-containing protein 3; test: Inhibition of NLRP3 in human THP-1 cells assessed as reduction in IL-1beta production measured after 3 hrs; assay type: cell-based
[7] = molecular target: T1, NACHT, LRR and PYD domains-containing protein 3; test: Inhibition of NLRP3 in human THP-1 cells assessed as reduction in IL-1beta production measured after 3 hrs by resazurin staining based assay; assay type: cell-based
[8] = Inhibition of NLRP3 in PBMC cells (unknown origin) assessed as reduction in IL-1beta production measured after 2 hrs by ELISA assay; assay type: cell-based
[9] = molecular target: T1, NACHT, LRR and PYD domains-containing protein 3; test: Inhibition of NLR3 in human Whole blood cell assessed as reduction in IL-1beta production preincubated for 0.5 hrs followed by LPS treatement for […] and further addition of ATP measured after 45 mins by ELISA assay; assay type: tissue-based
[10] = molecular target: T2, NACHT, LRR and PYD domains-containing protein 3; test: Inhibition of NLRP3 in mouse BMDM cells assessed as reduction in IL-1beta production preincubated for 30 mins followed by ATP addition measured after 45 mins by ELISA assay; assay type: cell-based
[11] = system: THP-1; test: Induction of pyroptosis in human THP-1 cells; assay type: functional, cell-based
[12] = molecular target: T1, NACHT, LRR and PYD domains-containing protein 3; test: Inhibition of NLRP3 in LPS induced human THP-1 cells assessed as reduction in IL-1beta production preincubated for 3 hrs followed by nigericin addition measured after 1 hrs by resazurin staining based assay; assay type: cell-based
[13] = system: THP-1; test: Induction of pyroptosis in human THP-1 cells by AlphaLisa assay; assay type: functional, cell-based
[14] = molecular target: T1, NACHT, LRR and PYD domains-containing protein 3; test: Inhibition of NLRP3 in human THP-1 cells assessed as reduction in IL-1beta production; assay type: cell-based
[15] = molecular target: T1, NACHT, LRR and PYD domains-containing protein 3; test: Inhibition of NLRP3 in human THP-1 cells assessed as reduction in IL-1beta production by ELISA; assay type: cell-based
[16] = molecular target: T1, NACHT, LRR and PYD domains-containing protein 3; test: Inhibition of NLRP3 in human THP-1 cells assessed as reduction in IL-1beta production measured after 1 hrs by ELISA assay; assay type: cell-based
[17] = molecular target: T2, NACHT, LRR and PYD domains-containing protein 3; test: Inhibition of NLRP3 in mouse J774A.1 cells assessed as reduction of IL-1beta production; assay type: cell-based, J774.A1
[18] = molecular target: T1, NACHT, LRR and PYD domains-containing protein 3; test: Inhibition of NLRP3 in human THP-1 cells assessed as reduction in IL-1beta production pre incubated for 3 hrs followed by nigericin addition measured after 1 hrs by resazurin staining based assay; assay type: cell-based
[19] = molecular target: T1, NACHT, LRR and PYD domains-containing protein 3; test: Inhibition of NLRP3 in human Whole blood cell assessed as reduction in IL-1beta production incubated for overnight in presence of ATP by ELISA; assay type: tissue-based
[20] = molecular target: T2, NACHT, LRR and PYD domains-containing protein 3; test: Inhibition of NLRP3 in LPS induced mouse BV-2 cells assessed as reduction in IL-1beta production pretreated for 30 mins followed by nigericin addition measured after 2 hrs by ELISA assay; assay type: cell-based
[21] = molecular target: T1, NACHT, LRR and PYD domains-containing protein 3; test: Inhibition of NLRP3 in human THP-1 cells assessed as reduction in IL-1beta production measured after 3 hrs by AlphaLISA assay; assay type: cell-based
[22] = molecular target: T1, NACHT, LRR and PYD domains-containing protein 3; test: Inhibition of NLRP3 in human MDM cells assessed as reduction in IL-1beta production measured after 3 hrs by AlphaLISA assay; assay type: cell-based

IC50 [1]: < 1000 nM
SMILES: COc1cc(-c2ccc3c(c2NC(=O)NS(=O)(=O)c2cn(C(C)C)c(=O)cn2)CCC3)ccn1

IC50 [2]: 11500 nM
SMILES: CC(C)c1nc2c(C(C)C)nn(CC(=O)Nc3ccc4nncn4c3)c(=O)c2s1

EC50 [3]: > 15000 nM
SMILES: CC(C)c1nn(CC(=O)Nc2ccc3nncn3c2)c(=O)cc1Oc1ccccc1

IC50 [4]: 1400 nM
SMILES: CCC(CC)CN1C(=O)/C(=C/c2ccccc2S(C)(=O)=O)SC1=S

SMILES: O=C(CBr)C1CCC1
IC50 [5]: ~5000 nM

IC50 [6]: < 100 nM
SMILES: CC(C)c1cc(NC(=O)NS(=O)(=O)C(c2cnn(C)c2)C2CCCN(C)C2)c(C(C)C)s1 (configuration not stated)

IC50 [7]: ≤ 250 nM
SMILES: O=C(Nc1c2c(cc3c1CCO3)CCC2)NS(=O)(=O)c1ccn(C2CC2)n1

IC50 [8]: < 100 nM
SMILES: Cn1cc(N(C[C@@H]2CCCO2)CS(=O)(=O)NC(=O)Nc2c3c(cc4c2CC4)CCC3)cn1

IC50 [9]: < 1000 nM
SMILES: O=C(Nc1c2c(cc3c1CCC3)CCC2)NS(=O)(=O)c1cc2c(o1)C1CCN(CC1)C2

IC50 [10]: < 100 nM
SMILES: CC(C)c1cc(F)cc(C(C)C)c1NC(=O)NS(=O)(=O)c1cc2c(o1)CCCC2(C)O (configuration not stated)

EC50 [11]: < 20 nM
SMILES: CN1CCC[C@@H](Nc2nnc(-c3ccc(C(F)(F)F)cc3O)c3c2nc(C2CC2)n3C)C1

IC50 [12]: < 1000 nM
SMILES: Cn1ncc2ccc(S(=O)(=O)NC(=O)Nc3c4c(cc5c3CCC5)CCC4)cc21

EC50 [3]: > 15000 nM
SMILES: CC(C)c1nn(CC(=O)Nc2ccc3nncn3n2)c(=O)cc1Nc1ccccc1

IC50 [13]: 0.6 nM
SMILES: Cc1cc(Cl)cc(O)c1-c1ccc2oc(N[C@H]3CCCN4CCC[C@H]34)nc2n1

IC50 [14]: > 30000 nM
SMILES: CC(C)c1cc(F)cc(C(C)C)c1NC(=O)N=[S+](N)([O-])c1ccc2ccccc2c1 (configuration not stated)

IC50 [15]: < 1000 nM
SMILES: CC1(C)CCc2c1cc1c(c2NC(=O)NS(=O)(=O)c2ccnn2CCCB(O)O)CCC1

IC50 [16]: 1140 nM
SMILES: CC(C)c1nn(C2(C(=O)Nc3ncccn3)CC2)c(=O)cc1-c1cc(F)cc(F)c1

IC50 [17]: 1540 nM
SMILES: Cc1ccc(S(=O)(=O)/C=C/C#N)cc1

IC50 [14]: < 250 nM
SMILES: Cc1cc2c(c(NC(=O)N[S+](=N)([O-])c3ccccc3)c1-c1ccnc(OC3CCN(C)CC3)c1)CCC2 (configuration not stated)

IC50 [16]: > 50000 nM
SMILES: CC(C)c1nn(CC(=O)Nc2ncncc2F)c(=O)c2cc(C(F)(F)F)ccc12

IC50 [17]: 910 nM
SMILES: O=C(/C=C/S(=O)(=O)c1ccccc1Cl)NCCc1ccccc1

IC50 [18]: < 1000 nM
SMILES: COc1cc(C)c(S(=O)(=O)NC(=O)Nc2c3c(cc4c2CCC4)CCC3)cn1

IC50 [19]: < 1000 nM
SMILES: O=C(Nc1c(C2CC2)ccc2c1CCC2)NS(=O)(=O)c1cc2c(o1)C1CCN(CC1)C2

IC50 [20]: 2050 nM
SMILES: COC(=O)c1cccc(C(=O)NC2(C(=O)Nc3c4c(cc5c3CCC5)CCC4)CC2)c1

IC50 [14]: ≤ 250 nM
SMILES: Cc1nc(C(C)C)c(NC(=O)NS(=O)(=O)c2cc(C(C)(C)O)co2)n1-c1ccncc1

IC50 [3]: < 12 nM
IC50 [2]: > 10000 nM
SMILES: CC(C)c1nn(CC(=O)Nc2ccncn2)c(=O)c2cc(I)nn12

IC50 [21]: < 500 nM
SMILES: COC(C)(C)Cn1ccc(S(=O)(=O)c2nnc(Nc3c4c(cc5c3CCC5)CCC4)[nH]2)n1

IC50 [16]: 3660 nM
SMILES: CC(C)c1nn(C(C)C(=O)Nc2ncc(F)cn2)c(=O)c2ccc(Br)cc12 (configuration not stated)

IC50 [13]: 0.4 nM
SMILES: CCN1CCC[C@@H](Nc2nc3nc(-c4c(C)cc(Cl)cc4O)ccc3o2)C1

EC50 [11]: < 20 nM
SMILES: CN1CCC[C@@H](Nc2nnc(-c3ccc(C(F)(F)F)cc3O)c3c2ncn3C)C1

IC50 [22]: < 1000 nM
SMILES: CC(C)(O)c1ccc2c(c1)[S+]([O-])(NC(=O)Nc1c3c(cc4c1CCC4)CCC3)=NC2=O (configuration not stated)
